The test system of the test is M. tuberculosis H37Rv growth inhibition. Briefly: M. tuberculosis H37Rv growth inhibitors, H37Rv strain (AID 1626). The note with it: for IC90: measured here: IC90 against H37Rv; for CC50: measured here: Vero cell cytotoxicity.

For orientation: IC50 means the concentration at which inhibition is half-maximal. Usually IC90 stands for the concentration needed for an effect of 90%. The term CC50 denotes the concentration at which the toxic effect on the cells reaches its halfway point. Read a high CC50 as better tolerance by the cells.

`COc1ccc(Cn2c(O)c(/C=C3/C=CC=N3)c(=O)[nH]c2=O)cc1`: the IC50 is 0.269 µM, the IC90 is > 100 µM and the CC50 is > 40 µM.
With `CC1=CC(C)(C)Nc2ccc(OC(=O)c3ccco3)cc21`, the IC50 is 54.4 µM, the IC90 was > 100 µM and the CC50 was > 40 µM.
For the compound `O=C(CCl)Nc1cn(-c2ccccc2)nc1-c1ccccc1`, the half-inhibitory concentration (IC50) was 9.87 µM, the IC90 was found to be 38.6 µM and the CC50 is 9.49 µM.
Taken in the same sequence, the figures for `O=C1c2cccc3c(N4CCOCC4)c([N+](=O)[O-])cc(c23)C(=O)N1c1cccc2ccccc12` were 5.97 µM, 6.82 µM and > 40 µM.
Consider `CN(C)c1ccc(NC(=O)Cn2cc3c(n2)CCCC3)cc1`, for which the IC50 is 13 µM and the IC90 is 18.6 µM.
Taken in the same sequence, the figures for `O=C1CCCC(O)=C1C=Nc1ccc2c(c1)oc1ccccc12` were < 0.195 µM and > 100 µM.
Turning to `CCOC(=O)Cn1nnc(-c2ccc(OCC(C)C)cc2)n1`, the IC50 was 16.6 µM and the IC90 was > 100 µM.
`O=C(/C=C/c1cccs1)Nc1cccc(NC(=O)/C=C/c2cccs2)n1`: the IC50 was 10.4 µM, the IC90 was > 100 µM and the CC50 is 28 µM.
Turning to `O=C(CCc1nc(-c2cccs2)no1)Nc1cnc2ccccc2c1`, the IC90 is > 100 µM.
As for `COCCn1nnnc1C(c1cc2cc(OC)ccc2[nH]c1=O)N1CCC(Cc2ccccc2)CC1` (stereo not drawn), the IC50 is 7.52 µM and the IC90 came out at 15.8 µM.
Regarding `C=C1C(=O)O[C@@H]2C[C@@H](C)[C@@H]3C=CC(=O)[C@@]3(C)[C@@H](OC(=O)CC(=O)O[C@H]3[C@@H]4C(=C)C(=O)O[C@@H]4C[C@@H](C)[C@@H]4C=CC(=O)[C@]43C)[C@H]12`, the IC50 is 1.47 µM, the IC90 turned out to be 3.35 µM and the CC50 is 1.4 µM.
The matching figures for `CC1CC(C)(C)Nc2ccc(N=O)cc21` (stereo not drawn): 5.75 µM, 6.38 µM and 6.76 µM.
In the case of `CCOC(=O)COc1ccc2c(=O)c(-c3ccccc3OC)coc2c1`, the IC50 is 1.06 µM and the 90% effect concentration (IC90) stood at 2.45 µM.
With `O=C(OCC(=O)N1CCCCC1)c1cc2ccccc2cc1O`, the IC50 is 1.62 µM and the IC90 came to 10.6 µM.
For the compound `c1ccc(Nc2nc(-c3ccccn3)cs2)cc1`, the IC50 is 0.376 µM, the IC90 came out at 0.854 µM and the CC50 was > 40 µM.
With `Cc1ccc(-n2nnnc2SC(C)C(=O)Nc2ccc(Cl)cn2)cc1` (stereo not drawn), the IC50 is 16.5 µM, the IC90 stood at 29.1 µM and the CC50 came to 26.7 µM.
Regarding `O=C(C[n+]1cc(-c2ccccc2)n2c1CCC2)N1c2ccccc2Sc2ccccc21`, the IC50 is 22.5 µM and the IC90 is > 100 µM.
Taken in the same sequence, the figures for `O=C(/C=C/c1ccc(-c2ccc(F)cc2)o1)N1CCCC1` were 14 µM and > 100 µM.
On to `Cc1nn(-c2ccccc2)c(Cl)c1CN(C(=O)CCl)c1ccc(Cl)cc1`, for which the IC50 was 13.5 µM, the IC90 worked out at 31.3 µM and the half-maximal cytotoxic concentration (CC50) was found to be 1.82 µM.
Consider `O=C(COC(=O)Cc1ccccc1)Nc1ccc(SC(F)F)cc1`, for which the IC50 was 36.4 µM and the IC90 was > 100 µM.
As for `Fc1ccc(C(c2ccc(F)cc2)N2CCN(C/C=C/c3ccccc3)CC2)cc1`, the IC50 is 7.94 µM, the IC90 turned out to be 10.1 µM and the CC50 is > 40 µM.
Take `CCCC(=O)OCCNc1cc(Sc2nc3ccccc3[nH]2)c2nonc2c1[N+](=O)[O-]`: the IC50 is 68.1 µM, the IC90 was > 100 µM and the CC50 stood at 23.5 µM.
As to `CCOc1cc(/C=C2\SC(=N)N(c3nccs3)C2=O)ccc1OCCN1CCOCC1`, the IC50 is 0.393 µM, the IC90 turned out to be 1.02 µM and the CC50 was determined as 19.1 µM.
In the case of `O=C(NCCN1CCOCC1)c1ccc([N+](=O)[O-])cc1[N+](=O)[O-]`, the IC50 is 2.11 µM and the IC90 was found to be 3.4 µM.
Turning to `Nc1nnc(SCc2ccc(F)cc2)s1`, the IC90 was > 100 µM.
On to `CC(C)(C)c1ccc(C(=O)CC(=O)c2cc(Cl)ccc2O)cc1`, for which the IC50 was 2.67 µM, the IC90 was found to be 3.14 µM and the CC50 is 12.4 µM.
Taken in the same sequence, the figures for `O=C(Nc1nc(-c2ccccn2)cs1)C1CC(=O)N(c2ccc3c(c2)OCCO3)C1` (stereo not drawn) were 17.2 µM, > 100 µM and 36.7 µM.
For `COc1ccc(C(=O)CNc2ccc3ccccc3c2)cc1`, the IC50 was 4.74 µM and the 90% effect concentration (IC90) is > 100 µM.
The matching figures for `CCCC(=O)Nc1cccc(-c2nc3ccccc3c(=O)o2)c1`: 5.72 µM and 12.1 µM.
Consider `CC(=O)/C=C/c1ccc2ccccc2n1`, for which the IC50 was 5.65 µM, the IC90 stood at 6.34 µM and the CC50 was found to be 16.1 µM.
For `CCOc1ccc(NC2=C(OC)C(=O)c3ccccc3C2=O)cc1`, the IC50 is 28.3 µM, the IC90 worked out at 44.1 µM and the CC50 is > 40 µM.
For `CCOC(=O)c1ccc(NC(=O)C2C3CCC(C3)C2C(=O)O)cc1` (stereo not drawn), the IC90 was > 100 µM.
As to `CC(C)COCC(CN(Cc1ccccc1)c1ccccc1)N1CCCC1` (stereo not drawn), the IC50 is 14.8 µM, the IC90 worked out at 20.1 µM and the CC50 was > 40 µM.
`CC(C)(C)C(=O)/C(=C/c1ccncc1)n1cncn1`: the IC50 is 8.39 µM, the IC90 was determined as 11.7 µM and the CC50 came to 5.11 µM.
With `CC(C)(C)c1cc(NCCCn2ccnc2)n2ncc(-c3ccc(Cl)cc3)c2n1`, the IC50 is 0.939 µM, the IC90 is 1.43 µM and the CC50 came to 22.3 µM.
Taken in the same sequence, the figures for `CC1(C)C2CCC1(C)C(NC(=O)/C=C/c1ccccc1)C2` (stereo not drawn) were < 0.195 µM, 18.1 µM and > 40 µM.
Taken in the same sequence, the figures for `CC(=O)Nc1ccc(Nc2cc(C(C)C)nc3c(-c4ccccc4)c(C)nn23)cc1` were 5.08 µM, 9 µM and > 40 µM.
The matching figures for `Oc1cccc2ccc(/C=C/c3ccc(Br)s3)nc12`: 2.56 µM, > 100 µM and 32.4 µM.
Take `CCOc1ccc(NC(=O)CCN2CCN(c3ccccc3F)CC2)cc1`: the IC50 is 36.3 µM and the IC90 is > 100 µM.
Consider `C=CCNc1cc(C(F)(F)F)nc(-c2ccccn2)n1`, for which the IC50 was 4.87 µM and the IC90 was 16.3 µM.
With `O=C(c1ccc(CNc2c(N3CCCC3)c(=O)c2=O)cc1)N1CC=C(c2ccccc2)CC1`, the IC50 is 26.2 µM and the IC90 was > 100 µM.
For the compound `COc1ccc(CCNC(=O)c2c(N)n(CCN3CCOCC3)c3nc4ccccc4nc23)cc1`, the IC50 is 11.3 µM, the IC90 worked out at 19.1 µM and the CC50 is > 40 µM.
Regarding `CC(C)OC(=O)c1cc(C(=O)c2cc(Cl)ccc2O)coc1=N`, the IC50 was 28.2 µM and the IC90 is > 100 µM.
Take `CCCCCOC(=O)NCCOC(=O)Nc1ccc(C(=O)OCC)cc1`: the IC50 is < 0.195 µM, the IC90 was > 100 µM and the CC50 is > 40 µM.
The matching figures for `O=C(/C=C/c1ccc([N+](=O)[O-])s1)N1CCCCC1`: 6.4 µM, 10.6 µM and > 40 µM.
Consider `Cn1c(C(C#N)C(=O)c2sc3ccccc3c2Cl)nc2ccccc21` (stereo not drawn), for which the 50% cytotoxic concentration (CC50) is > 40 µM.
As for `CCOc1ccc(NC(=O)c2ccc(NC(=O)c3cn4c5c(c(N6CCN(C)CC6)c(F)cc5c3=O)OCC4C)cc2)cc1` (stereo not drawn), the IC50 is 2.83 µM, the IC90 turned out to be 3.17 µM and the CC50 is > 40 µM.
The matching figures for `CCn1ccnc1CN(C)Cc1cn(-c2ccc(C)cc2)nc1-c1cccc(C)c1`: 2.73 µM, 3.64 µM and > 40 µM.
Taken in the same sequence, the figures for `CCCCCCn1c(=O)c(C(=O)Nc2nnc(C)s2)c(O)c2ccccc21` were 4.65 µM, 6 µM and > 40 µM.
Regarding `COc1ccc(NC2(C#N)CCCCC2)cc1`, the IC90 is > 100 µM.
On the same count and under the same terms, then `O=C(COC(=O)C1COc2ccccc2O1)NC(=O)Nc1ccc2c(c1)OCCO2` (stereo not drawn), with > 100 µM.
With `c1ccc(-c2nc(N3CCCCCC3)c3ccccc3n2)nc1`, the IC50 is 0.304 µM, the IC90 amounted to 0.318 µM and the CC50 was determined as 4.21 µM.
For `Oc1ccc(Cl)cc1N=Cc1sc2ccccc2c1Cl`, the IC50 is 6.53 µM, the IC90 amounted to 66.7 µM and the CC50 is > 40 µM.
For the compound `C=CCn1c(COc2ccc3c(c2)CCCC3)nnc1SCC(=O)Nc1cccc(SC)c1`, the IC90 was > 100 µM.
Turning to `O=C(NCCC1=CCCCC1)NC12CC3CC(CC(C3)C1)C2`, the IC50 is < 0.195 µM and the IC90 was determined as 67.6 µM.
Take `COC(=O)CN1C(c2ccc(OC)cc2)=Nc2ccc(Cl)cc2C1c1ccccc1` (stereo not drawn): the IC50 is 3.18 µM and the IC90 came to 6.98 µM.
The matching figures for `O=C(Nc1ccc(-c2csnn2)cc1)C(Cl)(Cl)Cl`: < 0.195 µM and > 100 µM.
The matching figures for `COc1ccc(CNC(=O)c2c(C)nc3ccccn23)cc1`: 1.77 µM and 7.63 µM.
As to `CCn1ccnc1CN1CCCC(C(=O)c2ccc3cc(OC)ccc3c2)C1` (stereo not drawn), the IC50 is 10.9 µM, the IC90 stood at 25.5 µM and the CC50 was > 40 µM.
`CCOC(=O)c1ccc(NC(=O)CCC2COc3ccccc3O2)cc1` (stereo not drawn): the IC50 is 3.3 µM and the IC90 is > 100 µM.
The matching figures for `Cc1cccc(-c2nsc(SCC(=O)NCc3ccc4c(c3)OCO4)n2)c1`: 7.57 µM and > 100 µM.
`O=C(c1nnsc1S(=O)c1ccc(Cl)cc1)N1CCOCC1` (stereo not drawn): the IC50 is 8.91 µM, the IC90 stood at 10.8 µM and the CC50 was found to be 14.4 µM.
Taken in the same sequence, the figures for `Cc1ccc(N=Nc2ccc(O)c3ncccc23)cc1C` were 14.1 µM, > 100 µM and 3.1 µM.
In the case of `Cn1nc(C(F)(F)F)c(-c2ccc(Br)cc2)c1NC(=O)c1cccnc1`, the IC90 was > 100 µM and the CC50 was > 40 µM.
With `N=C1SCC(=O)N1c1ncc(Cc2ccccc2Cl)s1`, the IC50 is < 0.391 µM, the IC90 turned out to be 15.9 µM and the CC50 is > 40 µM.

For the origin of these results see PubChem BioAssay AID1626 (SRMLSC, 2009).
